# Assay results: patent US11434242B2, “Dopamine-b-hydroxylase inhibitors” (BIAL-PORTELA & Cª, S.A., priority 2017, dated 2022)
# Marks after values point to notes of the source that are not given here.
# Biological target: T1, Dopamine beta hydroxylase (Homo sapiens, UniProt P09172)
# T1 construct: 125 μl of plasma; tissue Instituto Português do Sangue Transplantação; host or cells: human plasma from healthy donors
# T1 sequence (P09172 40-617 limits assumed): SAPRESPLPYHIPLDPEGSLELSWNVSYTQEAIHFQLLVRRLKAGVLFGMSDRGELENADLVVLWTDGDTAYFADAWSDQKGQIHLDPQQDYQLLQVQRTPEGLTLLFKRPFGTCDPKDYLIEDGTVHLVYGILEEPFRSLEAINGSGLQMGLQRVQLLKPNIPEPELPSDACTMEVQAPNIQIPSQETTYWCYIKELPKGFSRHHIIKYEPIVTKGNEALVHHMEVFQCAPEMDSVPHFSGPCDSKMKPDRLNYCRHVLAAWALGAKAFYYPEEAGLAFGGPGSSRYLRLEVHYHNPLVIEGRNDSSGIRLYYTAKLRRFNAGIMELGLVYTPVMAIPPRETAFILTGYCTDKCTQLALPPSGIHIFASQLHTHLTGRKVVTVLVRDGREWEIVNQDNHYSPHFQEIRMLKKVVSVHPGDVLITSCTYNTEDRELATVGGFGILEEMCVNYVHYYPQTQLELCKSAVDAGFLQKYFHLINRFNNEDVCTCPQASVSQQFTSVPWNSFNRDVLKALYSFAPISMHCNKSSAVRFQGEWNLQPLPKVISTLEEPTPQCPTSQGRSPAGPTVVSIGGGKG
# Experiment: Dopamine beta hydroxylase activity in human plasma
# Assay type: biochemical
# Conditions: for Plasma (1 μM), activity in % of control: inhibitor 1 μM
# How it was run: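 Healthy-donor human plasma pre-incubated 10 min at 37° C with compound at final 10, 100 or 1000 nM in pH 5.0 acetate buffer with ascorbate, fumarate, pargyline, N-ethylmaleimide, catalase and copper sulfate. Tyramine substrate then added for 45 min; octopamine formed was isolated by SCX cartridge, periodate-converted and read at 330 nm; activity given as % control.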
Compound,"Plasma (0.01 μM), activity in % of control (inhibitor 0.01 μM)","Plasma (0.1 μM), activity in % of control (inhibitor 0.1 μM)","Plasma (0.01 μM), activity in % of control, re-test (asterisked) (inhibitor 0.01 μM, re-tested under the same experimental conditions, asterisked data believed to be correct)","Plasma (0.1 μM), activity in % of control, re-test (asterisked) (inhibitor 0.1 μM, re-tested under the same experimental conditions, asterisked data believed to be correct)","Plasma (1 μM), activity in % of control"
"O=C(Cc1[nH]c(=S)n2c1C[C@H](c1c(F)ccc(Br)c1F)C2)N[C@@H]1CCCC[C@H]1O [Example 160, 2-((R)-6-(3-bromo-2,6-difluorophenyl)-3-thioxo-2,5,6,7-tetrahydro-3H-pyrrolo[1,2-c]imidazol-1-yl)-N-((1R,2R)-2-hydroxycyclohexyl)acetamide]",84.7 % of control,50.8 % of control,,,
"O=C(Cc1[nH]c(=S)n2c1C[C@H](c1c(F)ccc(Br)c1F)C2)N[C@H]1CCC[C@@H]1O [Example 161, 2-((R)-6-(3-bromo-2,6-difluorophenyl)-3-thioxo-2,5,6,7-tetrahydro-3H-pyrrolo[1,2-c]imidazol-1-yl)-N-((1S,2S)-2-hydroxycyclopentyl)acetamide]",85.0 % of control,46.0 % of control,,,
"O=C(Cc1[nH]c(=S)n2c1C[C@@H](c1c(F)ccc(Cl)c1F)C2)NCCn1cccn1 [Example 162, (S)—N-(2-(1H-pyrazol-1-yl)ethyl)-2-(6-(3-chloro-2,6-difluorophenyl)-3-thioxo-2,5,6,7-tetrahydro-3H-pyrrolo[1,2-c]imidazol-1-yl)acetamide]",87.2 % of control,31.3 % of control,,,
"CN(C(=O)Cc1[nH]c(=S)n2c1C[C@@H](c1c(F)ccc(Cl)c1F)C2)C1CCS(=O)(=O)CC1 [Example 163, (S)-2-(6-(3-chloro-2,6-difluorophenyl)-3-thioxo-2,5,6,7-tetrahydro-3H-pyrrolo[1,2-c]imidazol-1-yl)-N-(1,1-dioxidotetrahydro-2H-thiopyran-4-yl)-N-methylacetamide]",14.8 % of control,2.4 % of control,,,
"CS(=O)(=O)C1CCN(C(=O)Cc2[nH]c(=S)n3c2C[C@@H](c2c(F)ccc(Br)c2F)C3)C1 (stereo partly drawn) [Example 164, 2-((S)-6-(3-bromo-2,6-difluorophenyl)-3-thioxo-2,5,6,7-tetrahydro-3H-pyrrolo[1,2-c]imidazol-1-yl)-1-(3-(methylsulfonyl)pyrrolidin-1-yl)ethan-1-one]",65.8 % of control,17.1 % of control,,,
"O=C(Cc1[nH]c(=S)n2c1C[C@@H](c1c(F)ccc(Br)c1F)C2)N1CCC2(CCOC2)CC1 [Example 165, (S)-2-(6-(3-bromo-2,6-difluorophenyl)-3-thioxo-2,5,6,7-tetrahydro-3H-pyrrolo[1,2-c]imidazol-1-yl)-1-(2-oxa-8-azaspiro[4.5]decan-8-yl)ethan-1-one]",74.3 % of control,14.8 % of control,,,
"O=C(Cc1[nH]c(=S)n2c1C[C@@H](c1c(F)ccc(Br)c1F)C2)N1CC[S+]([O-])CC1 [Example 166, (S)-2-(6-(3-bromo-2,6-difluorophenyl)-3-thioxo-2,5,6,7-tetrahydro-3H-pyrrolo[1,2-c]imidazol-1-yl)-1-(1-oxidothiomorpholino)ethan-1-one]",66.9 % of control,14.1 % of control,,,
"CN(C(=O)Cc1[nH]c(=S)n2c1C[C@@H](c1c(F)ccc(Br)c1F)C2)C1CCOC1 (stereo partly drawn) [Example 167, 2-((S)-6-(3-bromo-2,6-difluorophenyl)-3-thioxo-2,5,6,7-tetrahydro-3H-pyrrolo[1,2-c]imidazol-1-yl)-N-methyl-N-(tetrahydrofuran-3-yl)acetamide]",50.8 % of control,3.2 % of control,78.0* % of control,28.0* % of control,
"O=C(Cc1[nH]c(=S)n2c1C[C@@H](c1c(F)ccc(Cl)c1F)C2)Nc1nncs1 [Example 168, (S)-2-(6-(3-chloro-2,6-difluorophenyl)-3-thioxo-2,5,6,7-tetrahydro-3H-pyrrolo[1,2-c]imidazol-1-yl)-N-(1,3,4-thiadiazol-2-yl)acetamide]",51.9 % of control,10.5 % of control,,,
"O=C(Cc1[nH]c(=S)n2c1C[C@@H](c1c(F)ccc(Cl)c1F)C2)Nc1ccccn1 [Example 169, (S)-2-(6-(3-chloro-2,6-difluorophenyl)-3-thioxo-2,5,6,7-tetrahydro-3H-pyrrolo[1,2-c]imidazol-1-yl)-N-(pyridin-2-yl)acetamide]",59.3 % of control,17.1 % of control,,,
"O=C(Cc1[nH]c(=S)n2c1[C@@H]1C[C@]1(c1cc(Br)ccc1F)C2)Nc1ccccn1 [Example 170, 2-((5aS,6aR)-5a-(5-bromo-2-fluorophenyl)-3-thioxo-2,3,5,5a,6,6a-hexahydrocyclopropa[3,4]pyrrolo[1,2-c]imidazol-1-yl)-N-(pyridin-2-yl)acetamide]",64.9 % of control,2.0 % of control,,,
"O=C(Cc1[nH]c(=S)n2c1[C@@H]1C[C@]1(c1cc(Cl)ccc1F)C2)Nc1cccnc1 [Example 171, 2-((5aS,6aR)-5a-(5-chloro-2-fluorophenyl)-3-thioxo-2,3,5,5a,6,6a-hexahydrocyclopropa[3,4]pyrrolo[1,2-c]imidazol-1-yl)-N-(pyridin-3-yl)acetamide]",40.4 % of control,3.7 % of control,,,
"OCCc1[nH]c(=S)n2c1C[C@H](c1c(F)c(F)cc(F)c1F)C2 [Example 172, (R)-1-(2-hydroxyethyl)-6-(2,3,5,6-tetrafluorophenyl)-2,5,6,7-tetrahydro-3H-pyrrolo[1,2-c]imidazole-3-thione]",,46.3 % of control,,,8.1 % of control
"OCCc1[nH]c(=S)n2c1C[C@H](c1c(F)ccc(Br)c1F)C2 [Example 173, (R)-6-(3-bromo-2,6-difluorophenyl)-1-(2-hydroxyethyl)-2,5,6,7-tetrahydro-3H-pyrrolo[1,2-c]imidazole-3-thione]",94.2 % of control,33.1 % of control,,,
"CC(C)NCCc1[nH]c(=S)n2c1[C@@H]1C[C@]1(c1cc(Cl)ccc1F)C2.Cl [Example 175, (5aS,6aR)-5a-(5-chloro-2-fluorophenyl)-1-(2-(isopropylamino)ethyl)-5,5a,6,6a-tetrahydrocyclopropa[3,4]pyrrolo[1,2-c]imidazole-3(2H)-thione hydrochloride]",,61.7 % of control,,,13.8 % of control
"Fc1ccc(Br)c(F)c1[C@H]1Cc2c(CCN[C@@H]3CCOC3)[nH]c(=S)n2C1 [Example 176, (R)-6-(3-bromo-2,6-difluorophenyl)-1-(2-(((R)-tetrahydrofuran-3-yl)amino)ethyl)-2,5,6,7-tetrahydro-3H-pyrrolo[1,2-c]imidazole-3-thione]",95.3 % of control,74.9 % of control,,,
"Fc1ccc(Br)c(F)c1[C@H]1Cc2c(CCN3CCC(F)(F)CC3)[nH]c(=S)n2C1 [Example 177, (R)-6-(3-bromo-2,6-difluorophenyl)-1-(2-(4,4-difluoropiperidin-1-yl)ethyl)-2,5,6,7-tetrahydro-3H-pyrrolo[1,2-c]imidazole-3-thione]",99.9 % of control,77.1 % of control,,,
"O=S1(=O)CCC(NCCc2[nH]c(=S)n3c2C[C@H](c2c(F)ccc(Br)c2F)C3)CC1 [Example 178, (R)-6-(3-bromo-2,6-difluorophenyl)-1-(2-((1,1-dioxidotetrahydro-2H-thiopyran-4-yl)amino)ethyl)-2,5,6,7-tetrahydro-3H-pyrrolo[1,2-c]imidazole-3-thione]",88.2 % of control,29.5 % of control,,,
"CS(=O)(=O)C1CCN(CCc2[nH]c(=S)n3c2C[C@H](c2c(F)ccc(Br)c2F)C3)CC1 [Example 179, (R)-6-(3-bromo-2,6-difluorophenyl)-1-(2-(4-(methylsulfonyl)piperidin-1-yl)ethyl)-2,5,6,7-tetrahydro-3H-pyrrolo[1,2-c]imidazole-3-thione]",93.5 % of control,48.8 % of control,,,
"Fc1ccc(Br)cc1[C@]12C[C@H]1c1c(CCNCC(F)(F)F)[nH]c(=S)n1C2 [Example 180, (5aS,6aR)-5a-(5-bromo-2-fluorophenyl)-1-(2-((2,2,2-trifluoroethyl)amino)ethyl)-5,5a,6,6a-tetrahydrocyclopropa[3,4]pyrrolo[1,2-c]imidazole-3(2H)-thione]",99.2 % of control,22.3 % of control,,,
